Values after ≈ are worked out from the molar mass of the structure shown.
How the values were obtained:
Assay type in all cases: functional
Mucor = assay: Antimicrobial activity against Mucor after 72 to 96 hr by two-fold serial dilution method
Rhizopus = assay: Antimicrobial activity against Rhizopus after 72 to 96 hr by two-fold serial dilution method
Aspergillus flavus = assay: Antimicrobial activity against Aspergillus flavus after 72 to 96 hr by two-fold serial dilution method
Nannizzia gypsea = assay: Antimicrobial activity against Microsporum gypseum after 72 to 96 hr by two-fold serial dilution method
Staphylococcus aureus = assay: Antimicrobial activity against Staphylococcus aureus after 24 hr by two-fold serial dilution method
Salmonella typhi = assay: Antimicrobial activity against Salmonella enterica subsp. enterica serovar Typhi after 24 hr by two-fold serial dilution method
Shigella flexneri = assay: Antimicrobial activity against Shigella flexneri after 24 hr by two-fold serial dilution method
Vibrio cholerae = assay: Antimicrobial activity against Vibrio cholerae after 24 hr by two-fold serial dilution method
Streptococcus = assay: Antimicrobial activity against beta-hemolytic Streptococcus after 24 hr by two-fold serial dilution method
Escherichia coli = assay: Antimicrobial activity against Escherichia coli after 24 hr by two-fold serial dilution method
Klebsiella pneumoniae = assay: Antimicrobial activity against Klebsiella pneumoniae after 24 hr by two-fold serial dilution method

SMILES | MIC (Mucor) [µg/mL] | MIC (Rhizopus) [µg/mL] | MIC (Aspergillus flavus) [µg/mL] | MIC (Nannizzia gypsea) [µg/mL] | MIC (Staphylococcus aureus) [µg/mL] | MIC (Salmonella typhi) [µg/mL] | MIC (Shigella flexneri) [µg/mL] | MIC (Vibrio cholerae) [µg/mL] | MIC (Streptococcus) [µg/mL] | MIC (Escherichia coli) [µg/mL] | MIC (Klebsiella pneumoniae) [µg/mL]
OC(Cn1cncn1)(Cn1cncn1)c1ccc(F)cc1F [FLUCONAZOLE] | 12.5 (≈ 40.8 µM) | 25 (≈ 81.6 µM) | 25 (≈ 81.6 µM) | 12.5 (≈ 40.8 µM) | – | – | – | – | – | – | –
Cc1ccc(C2NC(c3ccc(C)cc3)C3CCCC2C32NNC(=S)N2)cc1 (stereo not drawn) | 100 (≈ 255 µM) | 50 (≈ 127 µM) | 200 (≈ 509 µM) | 50 (≈ 127 µM) | 50 (≈ 127 µM) | 50 (≈ 127 µM) | 200 (≈ 509 µM) | 50 (≈ 127 µM) | 50 (≈ 127 µM) | 200 (≈ 509 µM) | 200 (≈ 509 µM)
S=C1NNC2(N1)C1CCCC2C(c2ccccc2)NC1c1ccccc1 (stereo not drawn) | 200 (≈ 549 µM) | 200 (≈ 549 µM) | 100 (≈ 274 µM) | 200 (≈ 549 µM) | 100 (≈ 274 µM) | 50 (≈ 137 µM) | 100 (≈ 274 µM) | 50 (≈ 137 µM) | 100 (≈ 274 µM) | 200 (≈ 549 µM) | 100 (≈ 274 µM)
S=C1NNC2(N1)C1CCCC2C(c2ccc(Br)cc2)NC1c1ccc(Br)cc1 (stereo not drawn) | 12.5 (≈ 23.9 µM) | 12.5 (≈ 23.9 µM) | 6.25 (≈ 12 µM) | 25 (≈ 47.9 µM) | 12.5 (≈ 23.9 µM) | 12.5 (≈ 23.9 µM) | 50 (≈ 95.7 µM) | 25 (≈ 47.9 µM) | 6.25 (≈ 12 µM) | 100 (≈ 191 µM) | 100 (≈ 191 µM)
O=C(O)c1cn(C2CC2)c2cc(N3CCNCC3)c(F)cc2c1=O [CIPROFLOXACIN] | – | – | – | – | 12.5 (≈ 37.7 µM) | 25 (≈ 75.4 µM) | 25 (≈ 75.4 µM) | 25 (≈ 75.4 µM) | 12.5 (≈ 37.7 µM) | 25 (≈ 75.4 µM) | 12.5 (≈ 37.7 µM)
Fc1ccc(C2NC(c3ccc(F)cc3)C3CCCC2C32NNC(=S)N2)cc1 (stereo not drawn) | 100 (≈ 250 µM) | 12.5 (≈ 31.2 µM) | 6.25 (≈ 15.6 µM) | 6.25 (≈ 15.6 µM) | 6.25 (≈ 15.6 µM) | 100 (≈ 250 µM) | 50 (≈ 125 µM) | 12.5 (≈ 31.2 µM) | 12.5 (≈ 31.2 µM) | 100 (≈ 250 µM) | 6.25 (≈ 15.6 µM)
S=C1NNC2(N1)C1CCCC2C(c2ccc(Cl)cc2)NC1c1ccc(Cl)cc1 (stereo not drawn) | 12.5 (≈ 28.8 µM) | 25 (≈ 57.7 µM) | 12.5 (≈ 28.8 µM) | 12.5 (≈ 28.8 µM) | 12.5 (≈ 28.8 µM) | 12.5 (≈ 28.8 µM) | 100 (≈ 231 µM) | 25 (≈ 57.7 µM) | 50 (≈ 115 µM) | 12.5 (≈ 28.8 µM) | 100 (≈ 231 µM)
O=[N+]([O-])c1ccc(C2NC(c3ccc([N+](=O)[O-])cc3)C3CCCC2C32NNC(=S)N2)cc1 (stereo not drawn) | 25 (≈ 55 µM) | 12.5 (≈ 27.5 µM) | 25 (≈ 55 µM) | 12.5 (≈ 27.5 µM) | 12.5 (≈ 27.5 µM) | 100 (≈ 220 µM) | 50 (≈ 110 µM) | 25 (≈ 55 µM) | 12.5 (≈ 27.5 µM) | 100 (≈ 220 µM) | 50 (≈ 110 µM)
COc1ccc(C2NC(c3ccc(OC)cc3)C3CCCC2C32NNC(=S)N2)cc1 (stereo not drawn) | 50 (≈ 118 µM) | 25 (≈ 58.9 µM) | 100 (≈ 236 µM) | 50 (≈ 118 µM) | 100 (≈ 236 µM) | 200 (≈ 471 µM) | 25 (≈ 58.9 µM) | 50 (≈ 118 µM) | 100 (≈ 236 µM) | 100 (≈ 236 µM) | 12.5 (≈ 29.4 µM)
